Data from patent EP0213526A1, “Spergualin-related compounds, a process for their preparation and their use as medicaments” (MICROBIAL CHEMISTRY RESEARCH FOUNDATION, priority 1985, dated 1987).

What was measured:
[1] = tested on: mouse leukemia L-1210; assay: Therapeutic effects on cancer in mice (life prolongation, mouse leukemia L-1210); format: in vivo; settings: 6 consecutive days, male BDF1 mice; for Percent life pro-longation: 10^5 L-1210 cells i.p., T/C x 100; for Percent survival for 30 days: groups of four, L-1210
Description: Male BDF1 mice (5-wk old) in groups comprising four heads were inoculated intraperitoneally with 10^5 cells of mouse leukemia L-1210. Starting on the day of inoculation, a selected sample dissolved in a physiological saline solution was administered intraperitoneally to each animal for 6 consecutive days on a one-dose-per-day basis. After keeping the animals for 30 days, the life-prolongation effect of sample was determined form the following formula:
Life-prolongation effect = T/C x 100 = (Average number of days of survival of the treated group / Average number of days of survival of the control group) x 100.

[2] = tested on: Gram-positive microorganisms; settings: background statement; cited from earlier work
[3] = tested on: mouse leukemia FL-4; settings: healing experiments, from Japanese Patent Public Disclosure No. 48975/1982; cited from earlier work
[4] = tested on: Ehrlich cancer; settings: healing experiments, from Japanese Patent Public Disclosure No. 48975/1982; cited from earlier work
[5] = tested on: mouse leukemia L-1210; settings: healing experiments, from Japanese Patent Public Disclosure No. 48975/1982; cited from earlier work
[6] = tested on: Gram-negative microorganisms; settings: background statement; cited from earlier work
[7] = tested on: sarcoma 180 (S-180); settings: healing experiments, from Japanese Patent Public Disclosure No. 48975/1982; cited from earlier work
[8] = Dose 0.20 mg/kg/day intraperitoneally
[9] = Dose 0.39 mg/kg/day intraperitoneally
[10] = Dose 0.78 mg/kg/day intraperitoneally
[11] = Dose 1.56 mg/kg/day intraperitoneally
[12] = Dose 3.13 mg/kg/day intraperitoneally
[13] = Dose 6.25 mg/kg/day intraperitoneally
[14] = Dose 12.5 mg/kg/day intraperitoneally
[15] = Dose 25 mg/kg/day intraperitoneally
[16] = Dose 50 mg/kg/day intraperitoneally

Structure (SMILES) | Percent life pro-longation [1, 8] [%] | Percent survival for 30 days [1, 8] | Percent life pro-longation [1, 9] [%] | Percent survival for 30 days [1, 9] | Percent life pro-longation [1, 10] [%] | Percent survival for 30 days [1, 10] | Percent life pro-longation [1, 11] [%] | Percent survival for 30 days [1, 11] | Percent life pro-longation [1, 12] [%] | Percent survival for 30 days [1, 12] | Percent life pro-longation [1, 13] [%] | Percent survival for 30 days [1, 13] | Percent life pro-longation [1, 14] [%] | Percent survival for 30 days [1, 14] | Percent life pro-longation [1, 15] [%] | Percent survival for 30 days [1, 15] | Percent life pro-longation [1, 16] [%] | Percent survival for 30 days [1, 16] | further results
N=C(N)Nc1ccc(CCCC(=O)NC(O)C(=O)NCCCCNCCCN)cc1 (racemic) [Compound 1, 10-{N-[4-(4-guanidinophenyl)butanoyl]-α-hydroxyglycyl}-1,5,10-triazadecane] | 110 | 0/4 | 120 | 0/4 | 155 | 0/4 | 197 | 0/4 | > 335 | 2/4 | > 363 | 2/4 | > 401 | 3/4 | > 356 | 2/4 | 0 | 0/4 | 
COC(NC(=O)CCCc1ccc(NC(=N)N)cc1)C(=O)NCCCCNCCCN (racemic) [Compound 2, 10-{N-[4-(4-guanidinophenyl)butanoyl]-α-methoxyglycyl}-1,5,10-triazadecane] | 104 | 0/4 | 111 | 0/4 | 118 | 0/4 | 171 | 0/4 | > 368 | 3/4 | > 403 | 3/4 | > 417 | 4/4 | > 417 | 4/4 | 0 | 0/4 | 
N=C(N)NCCCC[C@H](O)CC(=O)NC(O)C(=O)NCCCCNCCCN (stereo partly drawn) [Spergualin] |  |  |  |  |  |  |  |  |  |  |  |  |  |  |  |  |  |  | effect of inhibiting the growth [2]: inhibiting the growth; therapeutic and life-prolonging effects [3]: appreciable therapeutic and life-prolonging effects; therapeutic and life-prolonging effects [4]: appreciable therapeutic and life-prolonging effects; therapeutic and life-prolonging effects [5]: appreciable therapeutic and life-prolonging effects; effect of inhibiting the growth [6]: inhibiting the growth; therapeutic and life-prolonging effects [7]: appreciable therapeutic and life-prolonging effects
